Reference: US20250049932A1, “CYTOTOXICITY TARGETING CHIMERAS FOR FOLATE RECEPTOR-EXPRESSING CELLS” (GLAXOSMITHKLINE INTELLECTUAL PROPERTY DEVELOPMENT LIMITED, priority 2022, published 2025)
Where “and” joins values, the source holds several entries; their conditions need not be identical. Equal entries are not always repeated.

Molecular target: T1, FOLR (Homo sapiens, UniProt P15328)
T1 construct: Target cells: IGROV1 cells (typically 1000-20,000 cells per well); endogenous in cells; host or cells: IGROV1 cells
T1 sequence (P15328 25-234 limits assumed): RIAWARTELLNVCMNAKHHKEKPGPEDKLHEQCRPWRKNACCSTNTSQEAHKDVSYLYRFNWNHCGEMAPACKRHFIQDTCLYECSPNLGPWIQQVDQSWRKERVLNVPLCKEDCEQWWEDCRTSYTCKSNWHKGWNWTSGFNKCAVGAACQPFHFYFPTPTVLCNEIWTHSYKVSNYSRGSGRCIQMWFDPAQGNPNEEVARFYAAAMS
Assay: Antibody dependent cellular cytotoxicity (ADCC) reporter assay
Assay type: cell-based
Conditions: IGROV1 target cells; anti-cotinine antibody (SEQ ID NO: 11/12, human IgG1 Fc S239D/I332E); Jurkat FcγRIIIa NFAT-luciferase reporter cells; about 12-18 hours; one value per experimental run; EC50 in molar (M); footnote: pEC50 < 5 = inactive
Method: An antibody dependent cellular cytotoxicity (ADCC) reporter assay was conducted using the following four assay components: (i) ARM compound of Formula (I) targeting FOLR (concentrations ranging from 1 pM to 10 μM); (ii) anti-cotinine antibody having a heavy chain sequence of SEQ ID NO: 11 and a light chain sequence of SEQ ID NO: 12 (rabbit variable region with human IgG1 Fc domain containing DE mutation (S239D/I332E)) (concentrations ranging from 0.01 μg/mL-200 μg/mL); (iii) Target cells: IGROV1 cells (typically 1000-20,000 cells per well); and (iv) Reporter cells—Jurkat cells engineered to express FcγRIIIa with a reporter gene luciferase under the control of the NFAT promoter (typically 3000-75,000 cells per well). Reagents were combined in final volume of 20 μL in 384-well tissue culture treated plate. […]
Luminescence signal was measured on a microplate reader capable of measuring luminescence and signal: background was calculated by dividing the signal of a test well by the signal obtained when no compound of formula (I) was included in the assay. […]
ARMs compounds of Formula (I) were tested for ADCC activity in the above assay in one or more experimental runs and the results are shown in Table 3 below. […] The pEC50 value is the negative log of the EC50 value, wherein the EC50 value is half maximal effective concentration measured in molar (M). […]

Q: For `CN1C(=O)C[C@H](C(=O)NCCO[C@H]2CC[C@H](OCCCC(=O)N[C@H]3CC[C@H](C(=O)NCCNC(=O)CC[C@H](NC(=O)c4ccc(NCc5cnc6nc(N)[nH]c(=O)c6n5)cc4)C(=O)O)CC3)CC2)[C@H]1c1cccnc1` (racemic) [Example 2, N2-(4-(((2-Amino-4-oxo-3,4-dihydropteridin-6-yl)methyl)amino)benzoyl)-N5-(2-((1R,4S)-4-(4-(((1S,4R)-4-(2-((2S,3S)-1-methyl-5-oxo-2-(pyridin-3-yl)pyrrolidine-3-carboxamido)-ethoxy)cyclohexyl)oxy)butanamido)cyclohexane-1-carboxamido)ethyl)-L-glutamine], which EC50 is on record?
A: Its EC50 is 6.31e-08 M and 7.94e-08 M.

Q: With `CN1C(=O)C[C@H](C(=O)NCCNC(=O)CC[C@H](NC(=O)c2ccc(NCc3cnc4nc(N)[nH]c(=O)c4n3)cc2)C(=O)O)[C@H]1c1cccnc1` [Example 1, N2-(4-(((2-Amino-4-oxo-3,4-dihydropteridin-6-yl)methyl)amino)benzoyl)-N5-(2-((2S,3S)-1-methyl-5-oxo-2-(pyridin-3-yl)pyrrolidine-3-carboxamido)ethyl)-L-glutamine] as the compound, how does the “ADCC Reporter Assay pEC50” value read?
A: The value was 4.5 and 4.8.
